The values that follow come from patent US6506772B1, “Substituted [1,2,4]triazolo[1,5a]pyridine derivatives with activity as adenosine receptor ligands” (Hoffmann-La Roche Inc., priority 2000, dated 2003).

The target in assay [1] is T1, human adenosine A2A receptor (Homo sapiens, UniProt P29274).
T1 construct: expressed in transfected cells; host or cells: CHO cells, Semliki Forest virus expression system; membrane preparation
In words: Human adenosine A2A receptor [3H]-SCH-58261 binding assay. The settings on record: for Ki: affinity to human adenosine A2A receptor, read-out: Ki HA2A; for selectivity (A1/A2a): calculated ratio of the affinity to the HA1 receptor to the HA2a receptor.

The target of assay [2] is T2, HA1 adenosine receptor (Homo sapiens, UniProt P30542).
T2 sequence (P30542 1-326): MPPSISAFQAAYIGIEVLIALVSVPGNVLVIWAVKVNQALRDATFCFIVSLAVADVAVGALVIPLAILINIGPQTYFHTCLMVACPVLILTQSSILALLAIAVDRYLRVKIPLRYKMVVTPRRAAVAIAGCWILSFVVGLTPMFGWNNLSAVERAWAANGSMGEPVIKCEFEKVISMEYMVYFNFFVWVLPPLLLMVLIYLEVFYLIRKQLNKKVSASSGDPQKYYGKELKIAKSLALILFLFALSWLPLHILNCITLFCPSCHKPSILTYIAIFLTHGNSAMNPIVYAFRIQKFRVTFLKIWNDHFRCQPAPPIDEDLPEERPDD
Description: Human adenosine A1 receptor affinity (Ki hA1). Particulars: affinity to human adenosine A1 receptor. The format is binding.

T1 sequence (P29274 whole entry): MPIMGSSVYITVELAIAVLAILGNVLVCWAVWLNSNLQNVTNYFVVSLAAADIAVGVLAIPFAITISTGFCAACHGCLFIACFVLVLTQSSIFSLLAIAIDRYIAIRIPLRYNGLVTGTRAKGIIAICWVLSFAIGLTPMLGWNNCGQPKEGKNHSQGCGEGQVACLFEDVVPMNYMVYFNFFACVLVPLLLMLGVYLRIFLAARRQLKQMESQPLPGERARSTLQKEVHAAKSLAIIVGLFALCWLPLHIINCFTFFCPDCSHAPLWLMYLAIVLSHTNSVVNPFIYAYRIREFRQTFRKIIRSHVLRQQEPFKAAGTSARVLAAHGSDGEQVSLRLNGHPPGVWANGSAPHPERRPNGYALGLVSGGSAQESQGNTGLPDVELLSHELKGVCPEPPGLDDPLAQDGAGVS

For `CCN(CC)C(=O)c1cc(N)n2nc(-c3ccco3)nc2c1` [Example 105, 5-Amino-2-furan-2-yl-[1,2,4]triazolo[1,5-a]pyridine-7-carboxylic acid diethylamide], in assay [1], the Ki (as a rule, a measure of affinity in units of concentration, obtained from inhibition or displacement) is 50.9 nM and the “selectivity (A1/A2a)” value was 46.9. The Ki in assay [2] was determined as 2380 nM.

Turning to `Nc1cc(C(=O)N2CCOCC2)cc2nc(-c3ccco3)nn12` [Example 108, (5-Amino-2-furan-2-yl-[1,2,4]triazolo[1,5-a]pyridin-7-yl)-morpholin-4-yl-methanone], in assay [1], the Ki is 299 nM and the “selectivity (A1/A2a)” value was 20.7. The compound also had an inhibitory constant (Ki) in assay [2] of 6200 nM.

Take `Nc1cc(C(=O)NCc2ccccc2Cl)cc2nc(-c3ccco3)nn12` [Example 109, 5-Amino-2-furan-2-yl-[1,2,4]triazolo[1,5-a]pyridine-7-carboxylic acid 2-chloro-benzylamide]: in assay [1], the Ki was 2.9 nM and the “selectivity (A1/A2a)” value was 20.2. For the same compound, in assay [2], the Ki was found to be 58.7 nM.

For `Nc1cc(C(=O)NCc2ccccc2Br)cc2nc(-c3ccco3)nn12` [Example 110, 5-Amino-2-furan-2-yl-[1,2,4]triazolo[1,5-a]pyridine-7-carboxylic acid 2-bromo-benzylamide], in assay [1], the Ki turned out to be 2.6 nM and the “selectivity (A1/A2a)” value is given as 24.5. This compound yielded a Ki in assay [2] of 64.2 nM.

Consider `COc1cc(CNC(=O)c2cc(N)n3nc(-c4ccco4)nc3c2)cc(OC)c1OC` [Example 111, 5-Amino-2-furan-2-yl-[1,2,4]triazolo[1,5-a]pyridine-7-carboxylic acid 3,4,5-trimethoxy-benzylamide], for which, in assay [1], the inhibition constant (Ki) turned out to be 45.2 nM and the “selectivity (A1/A2a)” value is recorded as 27.1. The Ki in assay [2] was found to be 1220 nM.

With `COc1cc(CNC(=O)c2cc(N)n3nc(-c4ccc(C)o4)nc3c2)cc(OC)c1OC` [Example 112, 5-Amino-2-(5-methyl-furan-2-yl)-[1,2,4]triazolo[1,5-a]pyridine-7-carboxylic acid 3,4,5-trimethoxy-benzylamide], in assay [1], the Ki was 147 nM and the “selectivity (A1/A2a)” value is 16.6. Besides, the Ki in assay [2] is 2440 nM.

For the compound `Cc1ccc(-c2nc3cc(C(=O)N(C)C4CCCCC4)cc(N)n3n2)s1` [Example 113, 5-Amino-2-(5-methyl-thiophen-2-yl)-[1,2,4]triazolo[1,5-a]pyridine-7-carboxylic acid cyclohexyl-methyl-amide], in assay [1], the Ki was found to be 17.2 nM and the “selectivity (A1/A2a)” value is recorded as 17.8. In assay [2], this compound had a Ki of 307 nM.

As for `Cc1ccc(-c2nc3cc(C(=O)N4CCCCC4)cc(N)n3n2)s1` [Example 114, [5-Amino-2-(5-methyl-thiophen-2-yl)-[1,2,4]triazolo[1,5-a]pyridin-7-yl]-piperidin-1-yl-methanone], the inhibition constant (Ki) amounted to 28.3 nM in assay [1] and 772 nM in assay [2]. Moreover, the “selectivity (A1/A2a)” value in assay [1] is recorded as 27.3.

On to `Cc1ccc(-c2nc3cc(C(=O)N4CCOCC4)cc(N)n3n2)s1` [Example 115, [5-Amino-2-(5-methyl-thiophen-2-yl)-[1,2,4]triazolo[1,5-a]pyridin-7-yl]-morpholin-4-yl-methanone], for which, in assay [1], the Ki worked out at 222 nM and the “selectivity (A1/A2a)” value was 13.2. The compound further yielded a Ki in assay [2] of 2920 nM.

`Cc1ccc(-c2nc3cc(C(=O)N(C)Cc4ccccc4)cc(N)n3n2)s1` [Example 116, 5-Amino-2-(5-methyl-thiophen-2-yl)-[1,2,4]triazolo[1,5-a]pyridine-7-carboxylic acid benzyl-methyl-amide]: the figures for the Ki in assay [1] and in assay [2] were 15.3 nM and 170 nM, respectively. Moreover, the “selectivity (A1/A2a)” value in assay [1] is given as 11.1.

For `Cc1ccc(-c2nc3cc(C(=O)N(Cc4ccccc4)C(C)C)cc(N)n3n2)s1` [Example 117, 5-Amino-2-(5-methyl-thiophen-2-yl)-[1,2,4]triazolo[1,5-a]pyridine-7-carboxylic acid benzyl-isopropyl-amide], in assay [1], the Ki was determined as 9.2 nM and the “selectivity (A1/A2a)” value is 19.2. In addition, the Ki in assay [2] is 178 nM.

As for `Nc1cc(C(=O)N2CCCC2)cc2nc(-c3ccccc3O)nn12` [Example 118, [5-Amino-2-(2-hydroxy-phenyl)-[1,2,4]triazolo[1,5-a]pyridin-7-yl]-pyrrolidin-1-yl-methanone], in assay [1], the Ki is 126 nM and the “selectivity (A1/A2a)” value is 15.5. In assay [2], this compound returned a Ki of 1960 nM.

With `CCCCNC(=O)c1cc(N)n2nc(-c3nccs3)nc2c1` [Example 119, 5-Amino-2-thiazol-2-yl-[1,2,4]triazolo[1,5-a]pyridine-7-carboxylic acid butylamide], in assay [1], the Ki came out at 17.1 nM and the “selectivity (A1/A2a)” value is listed as 25.0. In addition, the Ki in assay [2] came to 429 nM.

With `CCN(CC)C(=O)c1cc(N)n2nc(-c3nccs3)nc2c1` [Example 120, 5-Amino-2-thiazol-2-yl-[1,2,4]triazolo[1,5-a]pyridine-7-carboxylic acid diethylamide], in assay [1], the Ki was determined as 77.4 nM and the “selectivity (A1/A2a)” value is reported as 35.4. In assay [2], this compound showed a Ki of 2740 nM.

Regarding `CC(C)N(Cc1ccccc1)C(=O)c1cc(N)n2nc(-c3ccccc3O)nc2c1` [Example 121, 5-Amino-2-(2-hydroxy-phenyl)-[1,2,4]triazolo[1,5-a]pyridine-7-carboxylic acid benzyl-isopropyl-amide], the values for the Ki in assay [1] and in assay [2] were 17 nM and 204 nM, respectively. Moreover, the “selectivity (A1/A2a)” value in assay [1] is 12.0.

On to `CC(C)N(C(=O)c1cc(N)n2nc(-c3nccs3)nc2c1)C(C)C` [Example 122, 5-Amino-2-thiazol-2-yl-[1,2,4]triazolo[1,5-a]pyridine-7-carboxylic acid diisopropylamide], for which, in assay [1], the Ki worked out at 317 nM and the “selectivity (A1/A2a)” value is reported as 10.5. The compound further showed a Ki in assay [2] of 3320 nM.

As for `Nc1cc(C(=O)NC2CCCCC2)cc2nc(-c3nccs3)nn12` [Example 123, 5-Amino-2-thiazol-2-yl-[1,2,4]triazolo[1,5-a]pyridine-7-carboxylic acid cyclohexylamide], in assay [1], the Ki worked out at 43.5 nM and the “selectivity (A1/A2a)” value is 16.0. The same compound registered a Ki in assay [2] of 698 nM.

Regarding `CN(C(=O)c1cc(N)n2nc(-c3nccs3)nc2c1)C1CCCCC1` [Example 124, 5-Amino-2-thiazol-2-yl-[1,2,4]triazolo[1,5-a]pyridine-7-carboxylic acid cyclohexyl-methyl-amide], in assay [1], the Ki stood at 99.2 nM and the “selectivity (A1/A2a)” value is on record as 15.2. Besides, the Ki in assay [2] was 1510 nM.

For the compound `Nc1cc(C(=O)NC2CCc3ccccc32)cc2nc(-c3nccs3)nn12` (stereo not drawn) [Example 125, 5-Amino-2-thiazol-2-yl-[1,2,4]triazolo[1,5-a]pyridine-7-carboxylic acid indan-1-ylamide], the Ki came to 24.4 nM in assay [1] and 255 nM in assay [2]. In addition, the “selectivity (A1/A2a)” value in assay [1] is reported as 10.5.

For `CC(NC(=O)c1cc(N)n2nc(-c3nccs3)nc2c1)c1ccccc1` (stereo not drawn) [Example 126, 5-Amino-2-thiazol-2-yl-[1,2,4]triazolo[1,5-a]pyridine-7-carboxylic acid (1-phenyl-ethyl)-amide], in assay [1], the Ki came to 54.4 nM and the “selectivity (A1/A2a)” value is recorded as 4.3. The compound also had a Ki in assay [2] of 232 nM.

For the compound `CCN(CC)C(=O)c1cc(N)n2nc(-c3cccs3)nc2c1` [Example 127, 5-Amino-2-thiophen-2-yl-[1,2,4]triazolo[1,5-a]pyridine-7-carboxylic acid diethylamide], in assay [1], the Ki came out at 104 nM and the “selectivity (A1/A2a)” value was 18.9. Further, the affinity in assay [2] corresponds to a Ki of 1970 nM.

Turning to `Nc1cc(C(=O)N2CCCCC2)cc2nc(-c3cccs3)nn12` [Example 129, (5-Amino-2-thiophen-2-yl-[1,2,4]triazolo[1,5-a]pyridin-7-yl)-piperidin-1-yl-methanone], in assay [1], the Ki is 101 nM and the “selectivity (A1/A2a)” value is given as 14.5. In assay [2], this compound had a Ki of 1460 nM.

`COc1ccccc1CNC(=O)c1cc(N)n2nc(-c3nccs3)nc2c1` [Example 130, 5-Amino-2-thiazol-2-yl-[1,2,4]triazolo[1,5-a]pyridine-7-carboxylic acid 2-methoxy-benzylamide]: in assay [1], the Ki was found to be 15.2 nM and the “selectivity (A1/A2a)” value was 8.4. In addition, affinity in assay [2] was put at a Ki of 128 nM.

Consider `CCCCNC(=O)c1cc(N)n2nc(-c3ccc(Br)o3)nc2c1` [Example 131, 5-Amino-2-(5-bromo-furan-2-yl)-[1,2,4]triazolo[1,5-a]pyridine-7-carboxylic acid butylamide], for which, in assay [1], the Ki was 19.4 nM and the “selectivity (A1/A2a)” value is on record as 17.8. This compound registered a Ki in assay [2] of 345 nM.

As to `Nc1cc(C(=O)N2CCOCC2)cc2nc(-c3ccc(Br)o3)nn12` [Example 132, [5-Amino-2-(5-bromo-furan-2-yl)-[1,2,4]triazolo[1,5-a]pyridin-7-yl]-morpholin-4-yl-methanone], the Ki is 33.8 nM in assay [1] and 767 nM in assay [2]. Also, the “selectivity (A1/A2a)” value in assay [1] is recorded as 22.7.

With `COc1cc(CNC(=O)c2cc(N)n3nc(-c4ccc(Br)o4)nc3c2)cc(OC)c1OC` [Example 133, 5-Amino-2-(5-bromo-furan-2-yl)-[1,2,4]triazolo[1,5-a]pyridine-7-carboxylic acid 3,4,5-trimethoxy-benzylamide], in assay [1], the inhibition constant Ki is 146 nM and the “selectivity (A1/A2a)” value is 13.3. Further, the affinity in assay [2], expressed as Ki, was 1940 nM.

Consider `Cn1cccc1-c1nc2cc(C(=O)N3CCCC3)cc(N)n2n1` [Example 134, [5-Amino-2-(1-methyl-1H-pyrrol-2-yl)-[1,2,4]triazolo[1,5-a]pyridin-7-yl]-pyrrolidin-1-yl-methanone], for which, in assay [1], the Ki turned out to be 287 nM and the “selectivity (A1/A2a)” value is 9.3. The affinity in assay [2], expressed as Ki, was 2680 nM.
